Results from article PMC12635975, “Peptide-Based Fluorescent Biosensing System for the Detection of the Melanoma Biomarker S100B” (Bioconjugate Chemistry, 2025).

Legend:
other S100 proteins = details: unlike other peptides; ref literature (citation numbers not shown in text); cited from earlier work
Excerpt: (§1) It interacts with S100B through a combination of hydrophobic and electrostatic interactions, stabilizing the protein structure and enhancing calcium-ion-binding affinity. […] By integrating TRTK12 into advanced optical biosensing systems, ...

S100B = target: T1, S100B (Homo sapiens, UniProt P04271); details: ref literature (citation numbers not shown in text); read-out: binding affinity K d; cited from earlier work
T1 construct: purchased Abbexa abx060130
T1 sequence (P04271 1-92): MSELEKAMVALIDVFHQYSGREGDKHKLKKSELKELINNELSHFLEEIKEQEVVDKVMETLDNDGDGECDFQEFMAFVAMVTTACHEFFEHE
Excerpt: as §1

[1] = target: fluorescently labeled peptide-nucleic acid (PNA) beacon with the peptide TRTK12 as the biorecognition element; assay: other fluorescence titration; beacon fixed at 500 nM, S100B 0-100 nM; donor (5-FAM) emission of the FAM/Dabcyl FRET beacon, excitation 499 nm; 50 mM Tris-HCl pH 7.0, 240 mM NaCl, 20 mM CaCl2; 35 °C; 60 min incubation; two-site binding model fitted to the calibration curve

For TRTKIDWNKILS [TRTK12], the cross-reactivity (other S100 proteins) is given as “minimal cross-reactivity with other S100 proteins” and the Kd (S100B) is given as roughly 260 nM.

B1: S100B protein (natural protein)
chain: MSELEKAMVALIDVFHQYSGREGDKHKLKKSELKELINNELSHFLEEIKEQEVVDKVMETLDNDGDGECDFQEFMAFVAMVTTACHEFFEHE
B1 gave a half-saturation constant of the high-affinity site (two-site binding model) [1] of 0.145 nM and a half-saturation constant of the lower-affinity site (two-site binding model) [1] of 364 nM.
